Measured values as given in paper PMC7109127 (British Journal of Cancer, 2020).
Several values for one entry are separate records, joined by “and”; a condition that tells them apart may be missing. Equal values may be shown once. Read-outs that look alike come from different tables or passages of the source.

How the values were obtained:
[1] = system: advanced HCC; experiment: phase 1b/2 study, antineoplastic efficacy (RECIST 1.1, PFS, OS); format: in vivo, patients
Protocol: This was a phase 1b/2, open-label, single-arm multicentre clinical trial. Subjects were accrued at Roswell Park Comprehensive Cancer Centre (RPCI) and Case Comprehensive Cancer Centre. The respective institutional review board (IRB) approved the protocol at each site. The study was conducted according to the principles of the Declaration of Helsinki, the International Conference on Harmonisation and the Guidelines for Good Clinical Practice. All patients provided written informed consent. The trial was registered with ClinicalTrials.gov (NCT01835223).
Secondary objectives included determination of safety and the PK/PD of tivozanib in patients with advanced HCC. The primary endpoint was PFS at 24 weeks. PFS and not ORR were selected because at the time of study inception PFS or time to progression were acceptable primary efficacy endpoints in early phase HCC studies in view of very low ORR with anti-VEGFR agents. Patients who remained alive and without evidence of disease progression per RECIST 1.1 for at least 24 weeks after enrolment were considered as PFS responders. Secondary endpoints were AEs by CTCAE v4.0, steady state PK, ORR, OS, change in HBV or HCV viral load, serum α-fetoprotein (AFP), and changes in soluble VEGFR-2 (sVEGFR-2).
Using the 3+3 design, the MTD was the DL with probability of DLT 33% or higher. With three dose levels, between 6 and 18 patients were required to complete the phase 1b portion. In terms of antineoplastic efficacy, the true progression rate of less than p0 = 0.50 was considered unacceptable and evidence of such will deem the treatment not worthy of further study. The null and alternative hypotheses tested were H0: p = p0 vs. H1: p > p0. With this two-stage design, a potential total of 37 patients was required to achieve 80% power to detect a difference of at least 20% with a type I error of 5%. Using a two-stage design, a total of 19 patients were planned to be enrolled initially, including the phase 1b patients treated at the MTD/RP2D. If nine or fewer PFS responses were observed, the therapy would be deemed ineffective and the study would end. Otherwise, an additional 18 patients would be enrolled. If 23 or fewer PFS responses are observed in the total efficacy population, therapy would be deemed ineffective; otherwise, it will be concluded that the therapy is promising. The differences on outcomes between study groups were compared by non-parametric Kruskal–Wallis test and Fisher’s/χ^2 test. OS and PFS were estimated by the Kaplan–Meier method and compared by log-rank test. All tests were two sided and performed at a nominal significance level of 0.05. SAS version 9.4 (SAS Institute, Cary, NC) is used for statistical analyses.

[2] = system: sVEGFR-2; experiment: phase 1b/2 study, pharmacodynamics: plasma sVEGFR-2 by ELISA; format: in vivo, Human; details: for sVEGFR-2, median percent decrease from baseline: day 15
Protocol: For sVEGFR-2, plasma EDTA samples (220 μL) were analysed in duplicate using a commercially available enzyme-linked immunosorbent assay (Quantikine® ELISA Human VEGFR-2/KDR immunoassay, R&D Systems® Inc., Minneapolis, MN) that was validated according to the FDA guidance. A Tomtec Quadra 4 (Tomtec Inc., Hamden, CT) liquid handling robot was used to transfer all solutions to the 96-well plate to eliminate time-dependent variability associated with manual pipetting. After the addition of the Stop Solution in the final step, the absorbance of each well was measured at 450 and 540 nm on a Synergy HT plate reader (BioTek Instruments, Winooski, VT). The readings at 540 nm were subtracted from the absorbance readings at 450 nm to correct for any optical imperfections in the 96-well plate. Sample concentrations were back-calculated against calibration curves (80.0–5000 pg/mL) that were generated based on a 4-parameter fit of absorbance vs. nominal concentrations (pg/mL) using the Gen 5 software (BioTek Instruments).

[3] = system: c-kit; details: in vitro; read-out: half-maximal inhibitory concentration, c-kit phosphorylation; cited from earlier work
[4] = system: SK-HEP-1 cells; details: cited from earlier work
[5] = cited from earlier work; for mean AUC0–24 / median tmax: all solid tumours, 1 mg
[6] = system: CYP3A4; details: background statement; cited from earlier work
[7] = system: PDGFRβ; experiment: in vitro inhibition of PDGFRβ phosphorylation
[8] = RP2D 1 mg, efficacy population N = 19

In the case of `COc1cc2nccc(Oc3ccc(NC(=O)Nc4cc(C)on4)c(Cl)c3)c2cc1OC` [tivozanib], the “24-week PFS probability” value ([1]; Kaplan–Meier, N = 19) is reported as 58%, the “1-year OS rate” value ([1]; N = 19) is reported as 40% and the “2-year OS rate” value ([1]; N = 19) is reported as 30%. For the same compound, the “overall disease control rate” value ([1]; RECIST 1.1, N = 19) was 63%, the “PFS responders at 24 weeks (6-month PFS)” value ([1]; RP2D 1 mg, N = 19) was 47.3% and the “overall response rate (PR, RECIST 1.1)” value ([1]; RP2D 1 mg, N = 19) was 21%. For the same compound, the “median OS” value [1, 8] was 9 months and 9.0 months, the “median PFS” value [1, 8] was 24 weeks and the “sVEGFR-2, median pre-dose level” value ([2]; cycle 1 day 1) was 8.64 µg/L. For the same compound, the “sVEGFR-2, median pre-dose level” value ([2]; cycle 1 day 15) was 5.37 µg/L, the “sVEGFR-2, median percent decrease from baseline” value ([2]; PFS responders) was 32.4% and the “sVEGFR-2, median percent decrease from baseline” value ([2]; PR by RECIST 1.1) was 30.9%. The “sVEGFR-2, median percent decrease from baseline” value ([2]; SD by RECIST 1.1) was 40.5%, the “sVEGFR-2, median percent decrease from baseline” value ([2]; all patients) was 31.1% and the “sVEGFR-2, median percent decrease from baseline” value ([2]; not PFS responders) was 30.1%. For the same compound, the “sVEGFR-2, median percent decrease from baseline” value ([2]; progressive disease (PD) by RECIST 1.1) was 27.4%, the IC50 [3] was 1.63 nM and the tumour growth inhibition ([4]; daily oral 0.2 mg/kg for 2 weeks) was roughly 60%. For the same compound, the tumour inhibition ([4]; daily oral 1 mg/kg) was roughly 90%, the “mean AUC0–24” value ([5]; multiple doses) was 856 ng·h/mL and the median tmax ([5]; multiple doses) was 4.01 h. For the same compound, the “mean AUC0–24” value ([5]; single dose) was 131.2 ng·h/mL, the median tmax ([5]; single dose) was 6.01 h and the half-life [5] was 88.8 to 113 h. The “interaction with CYP3A4 inhibitors” value [6] was “no interaction”, the “activity against PDGFRβ, times higher compared to lenvatinib” value [7] was 197 times and the “activity against PDGFRβ, times higher compared to sorafenib” value [7] was 46 times.
